Experimental data as given in publication PMC12165925 (Natural Products and Bioprospecting, 2025).

Experiments:
Assay in all cases: microbe, parasite or virus in culture
Type in all cases: cell-based
Conditions in all cases: hACE2-HEK293T cells
[1] = system: SARS-CoV-2-S pseudovirus Gamma variant
[2] = system: SARS-CoV-2-S pseudovirus Delta variant
[3] = system: SARS-CoV-2-S pseudovirus Omicron variant

## C[C@@H]1O[C@@H](O[C@H]2[C@H](OC(=O)[C@]34CCC(C)(C)C[C@H]3C3=CC[C@@H]5[C@@]6(C)C[C@H](O)[C@H](O[C@@H]7O[C@H](CO)[C@@H](O)[C@H](O)[C@H]7O)C(CO)(CO)[C@@H]6CC[C@@]5(C)[C@]3(C)C[C@H]4O)OC[C@H](O)[C@@H]2O)[C@H](O)[C@H](O)[C@H]1O[C@@H]1OC[C@@H](O)[C@H](O)[C@H]1O [DPD, Deapio platycodin D]
[1]
  IC50: 1000 ± 40 nM
[2]
  IC50: 830 ± 70 nM
[3]
  IC50: 1.03 ± 0.02 µM

## Oc1cc(O)c2cc(O)c(-c3cc(O)c(O)c(O)c3)[o+]c2c1 [Delphinidin]
[1]
  IC50: > 200000 nM
[2]
  IC50: > 200000 nM
[3]
  IC50: 10.8 ± 0.68 µM
